Measured values reported in PMC8750417, “Intracellular Amplifiers of Reactive Oxygen Species Affecting Mitochondria as Radiosensitizers” (Cancers, 2021).

Tests used:
[1] = test system: A2780 cells; experiment: Total intracellular ROS (CM-DCFH-DA), A2780; type: cell-based, human; details: 2 h
Description: Monitoring total intracellular ROS (tROS)
A2780 cells were seeded in RPMI 1640 medium containing 5% FBS, 1% L-glutamine and 1% penicillin/streptomycin in a 24-well microtiter plate (total volume 0.5 mL) at a density of 200 cells/µL one day before the experiment. On the day of the experiment, the cells were washed twice with DPBS buffer and the medium was replaced with HBSS (Hanks' Balanced Salt solution, 500 μL). CM-DCFH-DA (5-(6-)chloromethyl-2',7'- dichlorodihydrofluorescein diacetate, Thermo- Fisher) solution (0.1 mM in DMSO, 5 μL) was added (final concentration 1 µM) and the cells were incubated in the dark chamber filled with CO2 (5%) at 37 °C for 15 min. […] Finally, the fluorescence of live cells (λex = 488 nm, λem = 525 nm) in the suspensions was determined by using flow cytometry (Figure 4A, 5C).
Intracellular ROS release in Jurkat cells was monitored analogously (Figure S58).
Figure S58. […] OY-axis “Fluorescence”: the increase of the mean fluorescence (λex = 488 […]

[2] = test system: SBLF9 fibroblasts; experiment: Mitochondrial ROS imaging (MitoSOX), SBLF9 fibroblasts; type: cell-based; details: 5 µM
Description: The cells were re-suspended in RPMI 1640 medium containing 5% FBS, 1% L-glutamine and 1% penicillin/streptomycin (100 µL). Finally, the fluorescence of live cells (λex = 488 nm, λem = 530 nm) in the suspensions was determined by using flow cytometry (Figure […]
Figure S62. Fluorescence of DAF-FM diacetate-loaded A2780 cells treated either with 2c or the carrier. *: p<0.05, Student’s t test.
Effect of prodrug 2c on mitochondrial reactive oxygen species in representative cancer (A2780) and normal cells (SBLF9 fibroblasts) (Figure 6)
A2780 cells were seeded in of RPMI 1640 medium (500 µL) supplemented with 5% FBS, 1% L-glutamine, and 1% penicillin/streptomycin on a 35 mm imaging dish (µ- Dish 35 mm, high, ibidi GmbH, Germany) at a cell density of 80 cells/µL and allowed to attach to the surface of the dish for overnight. […]
The fluorescence images were taken with a Zeiss Axio Vert.A1 fluorescence microscope […]
4x10^4 cells per well. […] Cell viability was assessed by quantification of ATP (CellTiter Glo®, Promega) 48 hours after drug application.
Luminescence was measured on a Tecan Infinite F200 Microplate Reader. Viability was calculated as % of solvent (DMSO) treated control. […]

[3] = test system: A2780 cells; parameters: method as in PMID 30035345; details: relative to 4-(N-ferrocenyl-N-benzylaminocarbonyloxymethyl)-phenylboronic acid pinacol ester; cited from earlier work

Structure (SMILES) | total ROS (tROS) vs background [1] | mROS level in normal cells [2] | efficacy of cellular uptake relative to reference NAAF prodrug [3]
CC1(C)OB(c2ccc(COC(=O)N(Cc3cn(Cc4ccc(Cn5cc(Cc6ccccc6)nn5)cc4)nn3)[c-]3cccc3)cc2)OC1(C)C.[Fe+2].c1cc[cH-]c1 [2c] | significantly higher than its background levels | only a slight increase of mROS level | 
CCOC(=O)CCCCCn1cc(CN(C(=O)OCc2ccc(B3OC(C)(C)C(C)(C)O3)cc2)[c-]2cccc2)nn1.[Fe+2].c1cc[cH-]c1 [compound 1] |  |  | ca. 50%
